Experimental findings from patent publication US7960378B2, “Therapeutic compounds” (Allergan, Inc., priority 2008, dated 2011) are described below.

What all share (assay type): in vivo
The subject of experiment [1] is normotensive dogs. Description: IOP in normotensive dogs. Particulars: versus baseline.
Experiment [2] deals with laser-induced hypertensive monkeys. In words: IOP in laser-induced hypertensive monkeys. The note with it: versus baseline.
Experiment [3] has as its system lashes and adjacent hairs of the eyelids. Description: Lash and adjacent hair changes in glaucoma patients treated in one eye. The note with it: glaucoma patient treated in only one eye. The text has this:
In the course of treating patients having glaucoma, treatment may only be appropriate in one eye. […] The lash appearance on the lids of the treated eyes would have appeared quite attractive if it represented a bilateral phenomenon. As a result of its asymmetric nature, the long lashes on one side could be construed as disturbing from a cosmetic standpoint. A systemic examination was preformed as a result of the asymmetric phenomenon. It soon became apparent that this altered appearance was not an isolated finding. […] Definite differences could be identified to varying degrees in the lashes and adjacent hairs of all patients who were taking the drug on a unilateral basis for longer than 6 months.
The changes in the lashes were apparent on gross inspection in several patients once attention was focused on the issue. In those with light colored hair and lashes, the differences were only seen easily with the aid of the high magnification and lighting capabilities of the slit lamp biomicroscope. In the course of glaucoma follow-up examination, attention is generally immediately focused on the eye itself. As a result of the high power magnification needed only one eye is seen at a time and the eye is seen at a high enough power that the lashes are not in focus. […]

Consider `N#C[C@@H]1C[C@@H](O)[C@H](CCCC(O)C2(c3cccs3)CCC2)[C@H]1CCCCCCC(=O)OCCO` (stereo partly drawn) [Compound VIII], for which the “intraocular pressure (IOP)” value in experiment [1] was “decreases from baseline”. Moreover, in experiment [2], the IOP entry was “decreases from baseline”. In the case of `N#C[C@@H]1C[C@@H](O)[C@H](CCCC(O)C2(c3cccs3)CCC2)[C@H]1CCCCCCC(=O)OCCN1CCOCC1` (stereo partly drawn) [Compound XV], the “intraocular pressure (IOP)” value in experiment [1] is reported as “decreases from baseline”. For the same molecule, the IOP entry in experiment [2] is given as “decreases from baseline”. In the case of `CCC1(C(O)CCC[C@@H]2[C@@H](CCCCCCC(=O)OCCN3CCOCC3)[C@H](C#N)C[C@H]2O)CCC1` (stereo partly drawn) [Compound XI], the “intraocular pressure (IOP)” value in experiment [1] is listed as “decreases from baseline”. In addition, the IOP result in experiment [2] was “decreases from baseline”.

On to `N#C[C@@H]1C[C@@H](O)[C@H](/C=C/CC(O)C2(c3cccs3)CCC2)[C@H]1CCCCCCC(=O)OCCO` (stereo partly drawn) [Compound IV], for which the “intraocular pressure (IOP)” value in experiment [1] is listed as “decreases from baseline”. Besides, the IOP result in experiment [2] is recorded as “decreases from baseline”.

On to `N#C[C@@H]1C[C@@H](O)[C@H](/C=C/CC(O)C2(Cc3ccc(Cl)s3)CCC2)[C@H]1C/C=C\CCCC(=O)OCCN1CCOCC1` (stereo partly drawn) [Compound XIII], for which the “intraocular pressure (IOP)” value in experiment [1] was “decreases from baseline”. For the same molecule, the IOP result in experiment [2] is listed as “decreases from baseline”. `CCNC(=O)CCC/C=C\C[C@@H]1[C@@H](/C=C/[C@@H](O)CCc2ccccc2)[C@H](O)C[C@@H]1O` [bimatoprost]: the “lash appearance, treated eye versus non-treated eye” value in experiment [3] is “longer, thicker, and fuller in the treated eye than in the non-treated eye”. With `CCC1(C(O)C/C=C/[C@@H]2[C@@H](CCCc3ccc(C(=O)OCCO)s3)[C@H](C#N)C[C@H]2O)CCC1` (stereo partly drawn) [Compound VII], the “intraocular pressure (IOP)” value in experiment [1] is given as “decreases from baseline”. The IOP entry in experiment [2] is “decreases from baseline”. `CCC1(C(O)C/C=C/[C@@H]2[C@@H](CCCc3ccc(C(=O)OCCN4CCOCC4)s3)[C@H](C#N)C[C@H]2O)CCC1` (stereo partly drawn) [Compound XVI]: the “intraocular pressure (IOP)” value in experiment [1] is “decreases from baseline”. Besides, in experiment [2], the IOP entry is reported as “decreases from baseline”. As to `N#C[C@@H]1C[C@@H](O)[C@H](/C=C/CC(O)C2(c3cccs3)CCC2)[C@H]1C/C=C\CCCC(=O)OCCN1CCOCC1` (stereo partly drawn) [Compound X], the “intraocular pressure (IOP)” value in experiment [1] is “decreases from baseline”. Moreover, the IOP result in experiment [2] was “decreases from baseline”. As to `CCC1(C(O)CCC[C@@H]2[C@@H](CCCc3ccc(C(=O)OCCO)s3)[C@H](C#N)C[C@H]2O)CCC1` (stereo partly drawn) [Compound VI], in experiment [1], the “intraocular pressure (IOP)” value is on record as “decreases from baseline”. The IOP entry in experiment [2] is “decreases from baseline”. Regarding `N#C[C@@H]1C[C@@H](O)[C@H](/C=C/CC(O)C2(c3cccs3)CCC2)[C@H]1C/C=C\CCCC(=O)OCCO` (stereo partly drawn) [Compound II], the “intraocular pressure (IOP)” value in experiment [1] is on record as “decreases from baseline”. In addition, the IOP result in experiment [2] is recorded as “decreases from baseline”. Turning to `N#C[C@@H]1C[C@@H](O)[C@H](/C=C/CC(O)C2(c3cccs3)CCC2)[C@H]1CCCCCCC(=O)OCCN1CCOCC1` (stereo partly drawn) [Compound XII], the “intraocular pressure (IOP)” value in experiment [1] was “decreases from baseline”. Further, in experiment [2], the IOP result is recorded as “decreases from baseline”. In the case of `CCC1(C(O)CCC[C@@H]2[C@@H](CCCCCCC(=O)OCCO)[C@H](C#N)C[C@H]2O)CCC1` (stereo partly drawn) [Compound III], in experiment [1], the “intraocular pressure (IOP)” value was “decreases from baseline”. In addition, the IOP entry in experiment [2] is given as “decreases from baseline”. `CCC1(C(O)C/C=C/[C@@H]2[C@@H](C/C=C\CCCC(=O)OCCO)[C@H](C#N)C[C@H]2O)CCC1` (stereo partly drawn) [Compound I]: in experiment [1], the “intraocular pressure (IOP)” value is recorded as “decreases from baseline”. The IOP entry in experiment [2] is “decreases from baseline”. For `CCC1(C(O)CCC[C@@H]2[C@@H](CCCc3ccc(C(=O)OCCN4CCOCC4)s3)[C@H](C#N)C[C@H]2O)CCC1` (stereo partly drawn) [Compound XIV], the “intraocular pressure (IOP)” value in experiment [1] is recorded as “decreases from baseline”. Moreover, the IOP entry in experiment [2] is given as “decreases from baseline”. Regarding `N#C[C@@H]1C[C@@H](O)[C@H](/C=C/CC(O)C2(Cc3ccc(Cl)s3)CCC2)[C@H]1C/C=C\CCCC(=O)OCCO` (stereo partly drawn) [Compound V], the “intraocular pressure (IOP)” value in experiment [1] was “decreases from baseline”. Besides, the IOP result in experiment [2] was “decreases from baseline”. Take `CCC1(C(O)C/C=C/[C@@H]2[C@@H](C/C=C\CCCC(=O)OCCN3CCOCC3)[C@H](C#N)C[C@H]2O)CCC1` (stereo partly drawn) [Compound IX]: the “intraocular pressure (IOP)” value in experiment [1] was “decreases from baseline”. Besides, the IOP entry in experiment [2] is recorded as “decreases from baseline”.
